From PubChem BioAssay AID330 (DTP/NCI, 2004) come the findings set out here.

Values joined by “and” are separate entries in the source; they are usually repeats but may differ in a detail not shown here. Equal entries are not always repeated. Toxic doses and inconclusive results are not listed.

The assay concerns P388 leukemia ip, CD2F1 mice, survival T/C. Nature of the assay: NCI In Vivo Anticancer Drug Screen. Data for tumor model P388 Leukemia (intraperitoneal) in CD2F1 (CDF1) mice. To be noted: endpoint: median survival time, higher = longer survival. The procedure, abridged: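 Mice carrying the transplanted tumor received test compound or vehicle. Survival was recorded in each group, and the value is the treated-group measurement divided by that of the vehicle-treated control group.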

The mark [1] stands for this setting: dose: 60.0 mg/kg/injection, schedule: Q01DX005 (ip), vehicle: saline with Tween-80.
The mark [2] stands for this setting: dose: 120.0 mg/kg/injection, schedule: Q01DX005 (ip), vehicle: saline with Tween-80.
[3] abbreviates: dose: 240.0 mg/kg/injection, schedule: Q01DX005 (ip), vehicle: saline with Tween-80.
The mark [4] stands for this setting: dose: 25.0 mg/kg/injection, schedule: Q01DX005 (ip), vehicle: saline.
The mark [5] stands for this setting: dose: 25.0 mg/kg/injection, schedule: Q01DX005 (ip), vehicle: saline with Tween-80.
[6] abbreviates: dose: 50.0 mg/kg/injection, schedule: Q01DX005 (ip), vehicle: saline with Tween-80.
[7] abbreviates: dose: 100.0 mg/kg/injection, schedule: Q01DX005 (ip), vehicle: saline with Tween-80.
Setting [8] is: dose: 200.0 mg/kg/injection, schedule: Q01DX005 (ip), vehicle: saline with Tween-80.
Setting [9] is: dose: 50.0 mg/kg/injection, schedule: Q01DX005 (ip), vehicle: Klucel (hydroxypropylcellulose) (HPC).
Setting [10] is: dose: 100.0 mg/kg/injection, schedule: Q01DX005 (ip), vehicle: Klucel (hydroxypropylcellulose) (HPC).
[11] abbreviates: dose: 50.0 mg/kg/injection, schedule: Q01DX009 (ip), vehicle: Klucel (hydroxypropylcellulose) (HPC).
Setting [12] is: dose: 100.0 mg/kg/injection, schedule: Q01DX009 (ip), vehicle: Klucel (hydroxypropylcellulose) (HPC).
Setting [13] is: dose: 60.0 mg/kg/injection, schedule: Q01DX005 (ip), vehicle: Klucel (hydroxypropylcellulose) (HPC).
[14] abbreviates: dose: 50.0 mg/kg/injection, schedule: Q01DX009 (ip), vehicle: saline.
[15] abbreviates: dose: 50.0 mg/kg/injection, schedule: Q01DX005 (ip), vehicle: saline.
Setting [16] is: dose: 100.0 mg/kg/injection, schedule: Q01DX005 (ip), vehicle: saline.
[17] abbreviates: dose: 200.0 mg/kg/injection, schedule: Q01DX005 (ip), vehicle: saline.
Where [18] appears, read: dose: 25.0 mg/kg/injection, schedule: Q01DX009 (ip), vehicle: saline.

In the case of `O=C(N/N=C/c1cccc(C(F)(F)F)c1)c1ccncc1`, the T/C runs as follows: under setting [1], 103 % of control; under setting [2], 97 % of control; under setting [3], 90 % of control.

With `Nc1nc(N)nc(CNc2c(Br)cc(Br)cc2Br)n1`, the T/C under setting [1] was 93 % of control, the T/C under setting [2] is 101 % of control and the T/C under setting [3] was 90 % of control.

As to `CCCCN(CCCC)C(=N)c1ccc(OC)c(OC)c1`, the T/C was 98 % of control (dose: 6.25 mg/kg/injection, schedule: Q01DX005 (ip), vehicle: saline); 100 % of control (dose: 12.5 mg/kg/injection, schedule: Q01DX005 (ip), vehicle: saline); 100 % of control under setting [4].

Take `O=C1NC2(CCCCC2)C(=O)N1CO`: the T/C runs as follows: under setting [5], 101 % of control and 109 % of control; under setting [6], 100 % of control and 101 % of control; under setting [7], 103 % of control and 108 % of control; under setting [8], 116 % of control.

Consider `CCP(=S)(CC)[S][Sn]([CH3])([CH3])[S]P(=S)(CC)CC`, for which the T/C is, setting by setting: under setting [9], 118 % of control; under setting [10], 115 % of control.

On to `Cc1[nH]nc2c(Cc3ccccc3)n[nH]c(=O)c12`, for which the T/C was 102 % of control under setting [11]; 104 % of control under setting [12]; 112 % of control (dose: 200.0 mg/kg/injection, schedule: Q01DX009 (ip), vehicle: Klucel (hydroxypropylcellulose) (HPC)).

For `COc1cccc(C2CC(C)(O)Oc3cc4c(cc32)OCO4)c1` (configuration not stated), the T/C under setting [13] is 93 % of control.

Consider `Cc1cccc(C(C)(C)C)c1NC(=O)CCc1nnc(N)n1N`, for which the T/C by setting is: under setting [6], 111 % of control; under setting [7], 100 % of control; under setting [8], 101 % of control.

As to `c1ccc(CSC2=NCCN2)cc1`, the T/C by setting is: (dose: 12.5 mg/kg/injection, schedule: Q01DX009 (ip), vehicle: saline) 93 % of control; under setting [14], 91 % of control.

Take `O=c1c2cc3c(=O)n(CO)c(=O)c3cc2c(=O)n1CO`: the T/C reads like this: under setting [1], 118 % of control; under setting [2], 120 % of control; under setting [3], 121 % of control.

On to `NC(=O)c1ccc[n+](CCC[n+]2cccc(C(N)=O)c2)c1`, for which the T/C (dose: 60.0 mg/kg/injection, schedule: Q01DX005 (ip), vehicle: saline) is 103 % of control; the T/C (dose: 120.0 mg/kg/injection, schedule: Q01DX005 (ip), vehicle: saline) was 101 % of control; the T/C (dose: 240.0 mg/kg/injection, schedule: Q01DX005 (ip), vehicle: saline) is 99 % of control.

Take `CCCC(C)C(=O)N(C(C)=O)c1ccc(Cl)c(Cl)c1` (configuration not stated): the T/C runs as follows: (dose: 50.0 mg/kg/injection, schedule: Q01DX009 (ip), vehicle: saline with Tween-80) 103 % of control; (dose: 100.0 mg/kg/injection, schedule: Q01DX009 (ip), vehicle: saline with Tween-80) 103 % of control; (dose: 200.0 mg/kg/injection, schedule: Q01DX009 (ip), vehicle: saline with Tween-80) 110 % of control.

For `N#CC1=C(N)CCC1`, the T/C is, setting by setting: (dose: 6.25 mg/kg/injection, schedule: Q01DX009 (ip), vehicle: saline with Tween-80) 100 % of control; (dose: 12.5 mg/kg/injection, schedule: Q01DX009 (ip), vehicle: saline with Tween-80) 95 % of control.

Turning to `NC(CCC(=O)NC(CS)C(=O)NCC(=O)O)C(=O)O` (configuration not stated), the T/C is, setting by setting: under setting [4], 102 % of control; under setting [15], 104 % of control and 108 % of control; under setting [16], 98 % of control and 94 % of control; under setting [17], 102 % of control; (dose: 400.0 mg/kg/injection, schedule: Q01DX005 (ip), vehicle: saline) 93 % of control.

Take `COc1ccc(NC(=O)N2CC3CCN2CC3)cc1`: the T/C reads like this: under setting [1], 99 % of control; under setting [2], 93 % of control; under setting [3], 90 % of control.

For `CSc1nc(=O)n(CCC#N)nc1SC`, the T/C runs as follows: under setting [13], 98 % of control; (dose: 120.0 mg/kg/injection, schedule: Q01DX005 (ip), vehicle: Klucel (hydroxypropylcellulose) (HPC)) 92 % of control; (dose: 240.0 mg/kg/injection, schedule: Q01DX005 (ip), vehicle: Klucel (hydroxypropylcellulose) (HPC)) 92 % of control.

As for `O=C(O)CCN1C(=O)CCC1=O`, the T/C is 100 % of control (dose: 100.0 mg/kg/injection, schedule: Q04DX003 (ip), vehicle: saline with Tween-80); 95 % of control (dose: 200.0 mg/kg/injection, schedule: Q04DX003 (ip), vehicle: saline with Tween-80); 91 % of control (dose: 400.0 mg/kg/injection, schedule: Q04DX003 (ip), vehicle: saline with Tween-80).

Consider `CC(C)(C)OC(=O)NC(CCC(=O)O)(Cc1ccccc1)C(=O)NC(CCC(=O)OCc1ccccc1)C(=O)OCc1ccccc1` (configuration not stated), for which the T/C is, setting by setting: (dose: 6.25 mg/kg/injection, schedule: Q01DX005 (ip), vehicle: saline with Tween-80) 98 % of control; (dose: 12.5 mg/kg/injection, schedule: Q01DX005 (ip), vehicle: saline with Tween-80) 96 % of control; under setting [5], 105 % of control.

On to `C[CH2][Sn](=[O])[CH2]C`, for which, under setting [18], the T/C was 154 % of control.

Take `O=S(=O)(CI)OCCCl`: the T/C by setting is: under setting [9], 102 % of control; under setting [10], 110 % of control.

With `N#CC(Br)(C#N)Cc1ccccc1`, the T/C runs as follows: (dose: 25.0 mg/kg/injection, schedule: Q01DX009 (ip), vehicle: Klucel (hydroxypropylcellulose) (HPC)) 87 % of control; under setting [11], 100 % of control.

On to `CN(C)c1ccc(/C=C/C(=O)c2ccc(Nc3ccnc4cc(Cl)ccc34)cc2)cc1`, for which the T/C (dose: 400.0 mg/kg/injection, schedule: Q04DX002 (ip), vehicle: saline with Tween-80) was 93 % of control.

For `Cc1cc(C)cc(C(=O)NC(c2ccncc2)C(NC(=O)c2cc(C)cc(C)c2)c2ccncc2)c1` (configuration not stated), the T/C by setting is: under setting [5], 92 % of control; under setting [6], 90 % of control; under setting [7], 99 % of control; (dose: 400.0 mg/kg/injection, schedule: Q01DX005 (ip), vehicle: saline with Tween-80) 92 % of control.

On to `C=C(Br)C(=O)N1CCCC1C(=O)NC` (configuration not stated), for which the T/C reads like this: under setting [18], 110 % of control; under setting [14], 91 % of control; (dose: 100.0 mg/kg/injection, schedule: Q01DX009 (ip), vehicle: saline) 98 % of control.

With `Cc1cc(C)nc(NS(=O)(=O)c2ccc(NC(=O)Nc3ccc([N+](=O)[O-])cc3Cl)cc2)n1`, the T/C was 94 % of control under setting [11] and 86 % of control under setting [12].

Take `NC(=O)C(CCCN=C(N)N)NC(=O)c1ccccc1` (configuration not stated): the T/C was 105 % of control under setting [15], 99 % of control under setting [16] and 105 % of control under setting [17].

Take `CC1=C(C)C(=Nc2ccc(N(CCCl)CCCl)cc2)C=CC1=O`: the T/C runs as follows: (dose: 50.0 mg/kg/injection, schedule: Q01DX001 (ip), vehicle: Klucel (hydroxypropylcellulose) (HPC)) 97 % of control; (dose: 100.0 mg/kg/injection, schedule: Q01DX001 (ip), vehicle: Klucel (hydroxypropylcellulose) (HPC)) 100 % of control; (dose: 200.0 mg/kg/injection, schedule: Q01DX001 (ip), vehicle: Klucel (hydroxypropylcellulose) (HPC)) 114 % of control.

For `C/C(=N\NC(=S)N1CCCCCC1)c1cc2ccccc2cn1`, the T/C by setting is: (dose: 3.12 mg/kg/injection, schedule: Q01DX005 (ip), vehicle: distilled water + Tween-80 + alcohol) 100 % of control; (dose: 6.25 mg/kg/injection, schedule: Q01DX005 (ip), vehicle: Klucel (hydroxypropylcellulose) (HPC)) 117 % of control; (dose: 6.25 mg/kg/injection, schedule: Q01DX005 (ip), vehicle: distilled water + Tween-80 + alcohol) 111 % of control; (dose: 12.5 mg/kg/injection, schedule: Q01DX005 (ip), vehicle: Klucel (hydroxypropylcellulose) (HPC)) 116 % of control; (dose: 12.5 mg/kg/injection, schedule: Q01DX005 (ip), vehicle: distilled water + Tween-80 + alcohol) 105 % of control; (dose: 25.0 mg/kg/injection, schedule: Q01DX005 (ip), vehicle: Klucel (hydroxypropylcellulose) (HPC)) 121 % of control. Moreover, for the setting “dose: 25.0 mg/kg/injection, schedule: Q01DX005 (ip), vehicle: distilled water + Tween-80 + alcohol”, the T/C was 118 % of control.

Regarding `O=c1c(Cc2c(-c3ccccc3)[nH]c3ccccc23)coc2ccccc12`, the T/C was 90 % of control under setting [1] and 89 % of control under setting [2].
